# Experimental data as given in patent US10239863B2, “Factor XIa inhibitors” (Merck Sharp & Dohme Corp., priority 2013, dated 2019).
# Molecular target: T1, purified human Factor XIa (Homo sapiens, UniProt P03951)
# T1 construct: Determinations were made using purified human Factor XIa; purchased Sekisui Diagnostics
# Test: Factor XIa Assay (hydrolysis of fluorogenic substrate Z-Gly-Pro-Arg-AFC)
# Format: biochemical
# Conditions: purified human Factor XIa 40 pM; Z-Gly-Pro-Arg-AFC 100 μM; 50 mM HEPES pH 7.4; read-out: Factor XIa Inhibition (IC50 (nM))
# Method: The effectiveness of compounds of the present invention as inhibitors of Coagulation Factor XIa can be determined using a relevant purified serine protease, and an appropriate synthetic substrate. The rate of hydrolysis of the chromogenic or fluorogenic substrate by the relevant serine protease was measured both in the absence and presence of compounds of the present invention. Assays were conducted at room temperature or at 37° C. […] A decrease in the rate of fluorescence change in the presence of inhibitor is indicative of enzyme inhibition. Such methods are known to one skilled in the art. […]
# Factor XIa determinations were made in 50 mM HEPES buffer at pH 7.4 containing 150 mM NaCl, 5 mM CaCl2, and 0.1% PEG 8000 (polyethylene glycol; JT Baker or Fisher Scientific). Determinations were made using purified human Factor XIa at a final concentration of 40 pM (Sekisui Diagnostics) and the synthetic substrate, Z-Gly-Pro-Arg-AFC, TFA salt (Sigma #C0980) at a concentration of 100 μM.
# Times required to achieve equilibration between enzyme and inhibitor were determined in control experiments. Initial velocities of product formation in the absence (Vo) or presence of inhibitor (Vi) were measured. Assuming competitive inhibition, and that unity is negligible compared Km/[S], [I]/e, and [I]/e (where [S], [I], and e respectively represent the total concentrations, of substrate, inhibitor and enzyme), the equilibrium constant (Ki) for dissociation of the inhibitor from the enzyme can be obtained from the dependence of Vo/Vi on [I] shown in the following equation.
# T1 sequence (P03951 388-625 limits assumed): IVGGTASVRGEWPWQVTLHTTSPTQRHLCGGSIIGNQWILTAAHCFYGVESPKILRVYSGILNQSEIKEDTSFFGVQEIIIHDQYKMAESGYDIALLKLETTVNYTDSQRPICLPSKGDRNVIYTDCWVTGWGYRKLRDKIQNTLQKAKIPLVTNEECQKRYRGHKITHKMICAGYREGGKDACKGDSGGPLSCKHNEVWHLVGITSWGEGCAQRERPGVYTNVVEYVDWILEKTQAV
# T1 sequence (P03951 19-387 partner limits assumed): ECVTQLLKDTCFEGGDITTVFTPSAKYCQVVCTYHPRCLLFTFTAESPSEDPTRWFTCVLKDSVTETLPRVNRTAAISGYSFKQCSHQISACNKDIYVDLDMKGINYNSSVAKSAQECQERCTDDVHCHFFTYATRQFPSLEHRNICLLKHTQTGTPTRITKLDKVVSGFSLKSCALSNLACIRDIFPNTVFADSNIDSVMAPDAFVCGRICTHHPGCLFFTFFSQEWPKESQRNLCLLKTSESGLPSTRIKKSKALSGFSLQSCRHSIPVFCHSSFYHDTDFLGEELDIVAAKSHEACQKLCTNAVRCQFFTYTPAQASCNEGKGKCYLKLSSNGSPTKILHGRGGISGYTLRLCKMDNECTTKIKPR
row,IC50 [nM],SMILES
1,656,"COC(=O)Nc1ccc(-c2c[nH]c([C@@H]3[C@H](C4CC4)C[C@H](C4CCNCC4)CN3C(=O)/C=C/c3cc(Cl)ccc3-n3cnnn3)n2)cc1 (single isomer, unassigned) [Example 26]"
2,710,"COC(=O)Nc1ccc(-c2c[nH]c(C3C(c4ccc(F)cc4)CC(C4CCNCC4)CN3C(=O)/C=C/c3cc(Cl)ccc3-n3cnnn3)n2)cc1 (stereo not shown) [Example 27, methyl (4-{2-[1-{(2E)-3-[5-chloro-2-(1H-tetrazol-1-yl)phenyl]prop-2-enoyl}-5-(4-fluorophenyl)-3,4′-bipiperidin-6-yl]-1H-imidazol-4-yl}phenyl)car-bamate]"
3,407,"COC(=O)Nc1ccc(-c2c[nH]c(C3C(c4ccc(F)cc4)CC(N4CCC(N)CC4)CN3C(=O)/C=C/c3c(F)ccc(Cl)c3F)n2)cc1 (stereo not shown) [Example 21, methyl [4-(2-{4-amino-1′-[(2E)-3-(3-chloro-2,6-difluorophenyl)prop-2-enoyl]-5′-(4-fluorophenyl)-1,3′-bipiperidin-6′-yl}-1H-imidazol-4-yl)phenyl]carbamate]"

# Second part, the compound before the results:
row,SMILES,IC50 [nM]
1,"N#Cc1ccc(-c2cnc(C3C(c4ccc(F)cc4)CC(N4CCC(N)CC4)CN3C(=O)/C=C/c3c(C(F)(F)F)ccc(Cl)c3F)[nH]2)cc1 (stereo not shown) [Example 16, 4-{2-[4-amino-1′-{(2E)-3-[3-chloro-2-fluoro-6-(trifluoromethyl)phen-yl]prop-2-enoyl}-5′-(4-fluorophenyl)-1,3′-bipiperidin-6′-yl]-1H-imidazol-5-yl}benzonitrile]",35.6
2,"N#Cc1ccc(-c2cnc(C3C(c4ccc(F)cc4)CC(N4CCC(N)CC4)CN3C(=O)/C=C/c3c(C(F)(F)F)ccc(Cl)c3F)[nH]2)cc1 (stereo not shown) [Example 17, 4-{2-[4-amino-1′-{(2E)-3-[3-chloro-2-fluoro-6-(trifluoromethyl)phen-yl]prop-2-enoyl}-5′-(4-fluorophenyl)-1,3′-bipiperidin-6′-yl]-1H-imidazol-5-yl}benzonitrile]",889
3,O=C(O)c1ccc(NC(=O)[C@@H]2[C@H](C3CCCCC3)C[C@H](OC3CCNCC3)CN2C(=O)/C=C/c2cc(Cl)ccc2-n2cnnn2)cc1 (racemic) [Example 11],6.1
4,"CC(=O)N1CCN([C@H]2C[C@@H](c3ccc(F)cc3)[C@@H](C(=O)Nc3ccc4[nH]ncc4c3)N(C(=O)/C=C/c3cc(Cl)ccc3-n3cnnn3)C2)CC1 [Example 32, (2S,3S,5S)-5-(4-acetylpiperazin-1-yl)-1-{(2E)-3-[5-chloro-2-(1H-tetrazol-1-yl)phenyl]prop-2-enoyl}-3-(4-fluorophenyl)-N-1H-indazol-5-ylpiperidine-2-carboxamide]",72.2
